Calls of active or inactive are those of the source. No rule for the calls is given here.
Biological target: Induced myeloid leukemia cell differentiation protein Mcl-1 (Homo sapiens) (UniProt Q07820)
Test: blockers of Bid binding to Mcl-1 – biochemical, TR-FRET, dose response (AID 1418)
Settings: Mcl-1/Bid peptide binding, TR-FRET (europium/Dy647), 2 hr

Induced myeloid leukemia cell differentiation protein Mcl-1 (Homo sapiens), sequence (Q07820 whole entry, looked up): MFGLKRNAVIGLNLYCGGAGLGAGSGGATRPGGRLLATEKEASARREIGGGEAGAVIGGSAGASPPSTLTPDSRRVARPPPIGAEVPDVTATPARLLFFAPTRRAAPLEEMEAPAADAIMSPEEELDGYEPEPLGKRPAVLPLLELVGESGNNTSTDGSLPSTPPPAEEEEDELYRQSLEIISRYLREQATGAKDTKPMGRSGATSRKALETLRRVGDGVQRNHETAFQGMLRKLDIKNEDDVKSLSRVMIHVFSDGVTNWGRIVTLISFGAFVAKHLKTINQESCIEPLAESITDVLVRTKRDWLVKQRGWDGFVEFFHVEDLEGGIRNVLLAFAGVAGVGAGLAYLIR

SMILES	IC50
O=C(N/N=C/c1ccncc1)c1cccc(S(=O)(=O)Nc2ccc(Cl)cc2)c1	2.24 µM
Cc1ccc(C)c(C(=O)COC(=O)CCCC(=O)Nc2cc(C(F)(F)F)ccc2Cl)c1	> 54 µM (inactive)
Cc1cccc(NC(=O)c2cc(N3C(=O)CCC3=O)ccc2Cl)n1	> 54 µM (inactive)
CCN(CC)c1ccc(NC(=O)Cn2ncc3c(C)n(Cc4ccccc4F)c(C)c3c2=O)c(C)c1	0.53 µM
COc1cc2c(cc1OC)-c1cc(NC3CCCCCCC3)nc(=O)n1CC2	> 54 µM (inactive)
COc1cccc(Oc2c(C)oc3c(CN4CCCC4)c(O)ccc3c2=O)c1	> 54 µM (inactive)
COc1ccccc1CCc1nnc(CCC(=O)NC(C)Cc2cccnc2)o1 (configuration not stated)	> 54 µM (inactive)
Cc1[nH]n2c(=O)c3c(nc2c1-c1ccc(F)cc1)CCCC3	> 54 µM (inactive)
Cc1occc1C(=O)N/N=C/c1ccc(N(C)C)cc1	> 54 µM (inactive)
O=C(O)c1ccc2ncsc2c1	0.52 µM
Clc1ccc2nc(CN3CCCc4ccccc43)cn2c1	> 54 µM (inactive)
Clc1ccc(OCCN2CCCCC2)c(Cl)c1	> 54 µM (inactive)
CCOc1cc(/C=C2\C(=O)N(c3nc(-c4ccc(Br)cc4)cs3)N=C2c2ccccc2)ccc1O	0.75 µM
CCN1C(=O)/C(=C\c2ccc(-c3ccc([N+](=O)[O-])cc3OC)o2)SC1=Nc1cccc(C(=O)O)c1	> 54 µM (inactive)
COc1cccc(Nc2nc(NCC3CCCO3)c3ccccc3n2)c1 (configuration not stated)	> 54 µM (inactive)
CN1/C(=C\C=C2C(=O)NC(=S)NC2=O)C(C)(C)c2ccccc21	> 54 µM (inactive)
CCN(CC)c1ccc(NC(=O)Cn2c(C(C)NC(=O)c3ccc(C)cc3)nc3ccccc32)cc1 (configuration not stated)	0.9 µM
O=C(Nc1sc2c(c1C(=O)O)CCC2)c1ccccc1	> 54 µM (inactive)
Cc1cccc(NC(=O)C2C(C(=O)O)C3C=CC2C32CC2)c1C (configuration not stated)	> 54 µM (inactive)
O=C(O)CCc1nn2c3ccccc3n(CC(=O)c3ccccc3)c2nc1=O	> 54 µM (inactive)
C=CCn1c(SCC(=O)c2[nH]c(C)c(C(=O)OCC)c2C)nc2scc(-c3ccc(OC)c(OC)c3)c2c1=O	0.84 µM
COc1cc(/C=C2\SC(=O)N(c3cccc(Cl)c3)C2=O)cc([N+](=O)[O-])c1O	6.38 µM
O=C1NC(CCc2ccccc2)C(=O)N1Cc1ccccc1Cl (configuration not stated)	> 54 µM (inactive)
Cc1nc(NC(=O)c2ccco2)sc1-c1csc(Nc2ccc(Cl)cc2Cl)n1	0.77 µM

SMILES	IC50
COc1ccc(C(=O)Nc2cccc(-c3cc4ccccc4oc3=O)c2)cc1[N+](=O)[O-]	1.24 µM
Nc1nnc(SCC(=O)N2CCN(c3ccccc3)CC2)n1-c1ccccc1	> 54 µM (inactive)
CCN1C(=O)/C(=c2\s/c(=C3\Sc4ccccc4N3C)c(=O)n2C)N(C)C1=S	inactive
COc1cccc2c(=O)c(C/C=C(/C)Cl)c(C)[nH]c12	> 54 µM (inactive)
COc1ccc(C(=O)N2CCN(Cc3ccccc3C)CC2)cc1OC	> 54 µM (inactive)
CSc1nc(N(C)CCO)c2sc3nc(-c4ccco4)c4c(c3c2n1)CCC4	> 54 µM (inactive)
COc1ccc(C(=O)Nc2ccc3c(c2)C(=O)c2ccccc2C3=O)cc1OC	0.6 µM
C/C(C/C(C)=C1/SC(=S)NC1=O)=C1\SC(=S)NC1=O	1.25 µM
CCOc1ccc(C(Nc2cccnc2)c2cc(Cl)c3cccnc3c2O)cc1 (configuration not stated)	0.51 µM
O=C1C(=Cc2cccn2-c2ccccc2)C(=O)c2ccccc21	2.58 µM
Nc1c(C(=O)NC2CC2)sc2nc3c(c(-c4ccco4)c12)CC/C3=C/c1ccco1	> 54 µM (inactive)
c1ccc(CSc2nnc(-c3ccco3)c(-c3ccco3)n2)cc1	10.2 µM
CC(C)NC(=O)C1CCCN(S(=O)(=O)c2ccc(-n3cnnn3)cc2)C1 (configuration not stated)	> 54 µM (inactive)
Cc1ccc(C(=O)NNC(=O)CSc2nnc3c(n2)[nH]c2ccc(F)cc23)cc1	> 54 µM (inactive)
CCOC(=O)c1c(-c2ccco2)csc1NC(=O)CSc1nnc(N)s1	> 54 µM (inactive)
NNc1nc(-c2ccccc2)cs1	0.58 µM
COC(=O)c1cccc(OCC(O)Cn2ccnc2)c1 (configuration not stated)	> 54 µM (inactive)
NC(=O)c1cnn2c(-c3cccc(C(F)(F)F)c3)ccnc12	> 54 µM (inactive)
COc1ccc2nc(N3C(=O)/C(=C/c4ccc(Cl)cc4)NC3=S)sc2c1	1.75 µM
CN1C(=O)CN=C(c2ccc(Cl)cc2)c2cc(Cl)ccc21	> 54 µM (inactive)
Cc1cc(=O)oc2cc(OCC(=O)N/N=C/c3cc([N+](=O)[O-])ccc3O)ccc12	5.58 µM
CC(=O)Nc1ccc(S(=O)(=O)NCc2ccccn2)cc1	> 54 µM (inactive)
COc1ccccc1NC(=O)COc1cc(Br)c(CNCCCN2CCOCC2)cc1OC	> 54 µM (inactive)
CC(C)NC(=O)c1ccc(COCC(F)(F)F)cc1	> 54 µM (inactive)

SMILES	IC50
N=C1/C(=C/c2cccn2-c2cccc([N+](=O)[O-])c2)C(=O)N=C2SC=CN12	12.5 µM
CCN1CCc2c(OCc3ccc(C(=O)OC)o3)cccc2C1=O	> 54 µM (inactive)
O=[N+]([O-])c1cc(Br)c(O)c(/C=N/Nc2nc3ccccc3s2)c1	1.16 µM
CCOC(=O)C1CCN(CC(=O)Nc2c(C(=O)OC)[nH]c3cccc(Cl)c23)CC1	> 54 µM (inactive)
O=C(NC1CCCC1)c1csc2c1CCCC2	> 54 µM (inactive)
COc1ccc(OC(=O)c2ccncc2)cc1	> 54 µM (inactive)
Clc1ccccc1CN1CCc2sccc2C1	> 54 µM (inactive)
CCOc1c(C(N)=O)c(-c2ccccc2)c2c(=O)[nH]c3ccccc3n12	> 54 µM (inactive)
COc1ccc2[nH]c3c(c2c1)CCn1c-3nc2sc(C(=O)Nc3ccccc3)c(C)c2c1=O	1.89 µM
CC(=O)c1ccc(NC(=O)C(C)n2c3ccccc3c3nc(=O)cc(C)n32)cc1 (configuration not stated)	> 54 µM (inactive)
CN(C)c1ccc(-c2nnc(-c3ccc(S(=O)(=O)C(F)F)cc3)o2)cc1	2.48 µM
COc1ccc(C(=O)C2CCCN(Cc3cn[nH]c3-c3ccc(F)cc3)C2)cc1OC (configuration not stated)	> 54 µM (inactive)
CC(C)[n+]1ccn(C2=C([O-])c3ccccc3C(=O)/C2=N\S(=O)(=O)c2ccccc2)c1	> 54 µM (inactive)
COC(=O)c1cc2sc(Cl)cc2n1CC(=O)Nc1cccc(SC)c1	> 54 µM (inactive)
NC(=O)N1CCN(C(=O)c2ccco2)CC1	> 54 µM (inactive)
CCCOc1ccc(C(=O)NCC(c2ccco2)N(C)C)cc1OC (configuration not stated)	> 54 µM (inactive)
O=C(O)c1cnn2c(C(F)(F)F)cc(-c3ccco3)nc12	> 54 µM (inactive)
CCN1C(=O)c2cccc3c(NC(=O)C4CCCCC4)ccc1c23	> 54 µM (inactive)
Cn1c2c(c(=O)n(C)c1=O)C1c3cc(Cl)ccc3OCC1CO2 (configuration not stated)	> 54 µM (inactive)
Cc1csc(CCc2nc(C)cs2)n1	> 54 µM (inactive)
C=C1C(=O)[C@@]23[C@H](O)C[C@@H]4C(C)(C)CC[C@H](O)[C@]4(C)[C@@H]2C[C@H](O)[C@@H]1[C@H]3O	> 54 µM (inactive)
CCN(CC)S(=O)(=O)c1ccc(NC(=O)Nc2cccc(C(F)(F)F)c2)cc1	> 54 µM (inactive)
COC(=O)c1ccc(CNC(=O)c2c3c(nc4ccccc24)CCN(Cc2ccccc2)C3)cc1	> 54 µM (inactive)
O=C1NN(c2ccc(Cl)c(Cl)c2)C(=O)/C1=C/c1cccc(OC(=O)c2cccs2)c1	6.57 µM

From PubChem BioAssay AID1418 (Emory University Molecular Libraries Screening Center, 2008)
